pEC50, pKi: −log10 of the molar value.
Experiments:
HL-60 = assay: Compound was evaluated for its effective dose against HL-60 cells; type: functional; details: Homo sapiens, read-out: ED50 (the source's name)
[1] = molecular target: Protein kinase C delta type (Homo sapiens, UniProt Q05655); assay: Binding affinity for human recombinant protein kinase C delta
Sequence of Protein kinase C delta type (Q05655 whole entry): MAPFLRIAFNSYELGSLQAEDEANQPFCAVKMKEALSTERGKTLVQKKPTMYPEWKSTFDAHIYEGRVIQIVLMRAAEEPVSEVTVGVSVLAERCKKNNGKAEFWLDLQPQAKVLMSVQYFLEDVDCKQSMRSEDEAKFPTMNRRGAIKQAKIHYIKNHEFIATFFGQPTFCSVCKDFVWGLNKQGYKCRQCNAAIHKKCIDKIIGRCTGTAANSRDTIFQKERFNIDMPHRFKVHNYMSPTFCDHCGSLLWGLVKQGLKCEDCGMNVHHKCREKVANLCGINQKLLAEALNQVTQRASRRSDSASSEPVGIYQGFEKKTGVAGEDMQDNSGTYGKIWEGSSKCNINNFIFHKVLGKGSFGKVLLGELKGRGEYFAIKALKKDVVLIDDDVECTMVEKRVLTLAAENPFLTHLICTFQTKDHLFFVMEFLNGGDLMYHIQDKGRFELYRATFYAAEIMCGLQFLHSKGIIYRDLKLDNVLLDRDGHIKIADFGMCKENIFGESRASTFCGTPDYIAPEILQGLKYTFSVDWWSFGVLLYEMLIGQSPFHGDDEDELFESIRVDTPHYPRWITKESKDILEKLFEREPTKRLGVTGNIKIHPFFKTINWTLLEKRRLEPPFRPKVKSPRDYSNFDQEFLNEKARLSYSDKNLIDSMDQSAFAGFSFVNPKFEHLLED

Structure (SMILES) | pEC50 (HL-60) | pKi [1]
CCCCCCCCCCCCCCCCCCCC[C@H]1C(=O)N[C@H](CO)Cc2ccccc2N1C | 7.15 | < 6.00
CCCCCCCCCCCCCC[C@H]1C(=O)N[C@H](CO)Cc2ccccc2N1C |  | 9.10
CCCCCCCCCCCC[C@H]1C(=O)N[C@H](CO)Cc2ccccc2N1C |  | 9.10
CCCCCCCCCC[C@H]1C(=O)N[C@H](CO)Cc2ccccc2N1C |  | 9.10
